Data reported in ChEMBL document CHEMBL1154168, “New 2-aryloxy-3-phenyl-propanoic acids as peroxisome proliferator-activated receptors alpha/gamma dual agonists with improved potency and reduced adverse effects on skeletal muscle function” (J Med Chem, 2009).
Activity calls are given as the source filed them. The rule behind the calls is not given here.

How the values were obtained:
[1] = biological target: T1, Peroxisome proliferator-activated receptor alpha (Homo sapiens, UniProt Q07869); assay: Agonist activity at GAL4-tagged human PPARalpha ligand binding domain expressed in human HepG2 cells assessed as receptor transactivation by luciferase reporter gene assay; format: cell-based
T1 sequence (Q07869 whole entry): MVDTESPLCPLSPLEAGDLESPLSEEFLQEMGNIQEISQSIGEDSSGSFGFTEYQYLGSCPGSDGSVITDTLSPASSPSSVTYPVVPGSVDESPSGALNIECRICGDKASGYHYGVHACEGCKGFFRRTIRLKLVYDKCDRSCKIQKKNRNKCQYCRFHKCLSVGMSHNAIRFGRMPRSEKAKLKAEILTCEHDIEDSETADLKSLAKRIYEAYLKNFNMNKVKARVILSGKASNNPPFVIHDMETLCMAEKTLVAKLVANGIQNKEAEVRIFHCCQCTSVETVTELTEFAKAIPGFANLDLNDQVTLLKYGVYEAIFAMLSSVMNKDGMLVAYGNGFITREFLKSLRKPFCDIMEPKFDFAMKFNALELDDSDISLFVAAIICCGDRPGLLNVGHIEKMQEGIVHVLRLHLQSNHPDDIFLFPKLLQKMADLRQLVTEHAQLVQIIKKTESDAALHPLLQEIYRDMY

[2] = biological target: T2, Chloride channel isoform 1 (Rattus norvegicus) (UniProt Q7TT78); assay: Inhibition of CIC1 in Wistar rat extensor digitorum longus muscle assessed as decrease in resting chloride channel conductance at 50 uM by electrophysiology method; format: tissue-based; design: scale not given: the % may be the effect or the level left
T2 sequence (whole entry): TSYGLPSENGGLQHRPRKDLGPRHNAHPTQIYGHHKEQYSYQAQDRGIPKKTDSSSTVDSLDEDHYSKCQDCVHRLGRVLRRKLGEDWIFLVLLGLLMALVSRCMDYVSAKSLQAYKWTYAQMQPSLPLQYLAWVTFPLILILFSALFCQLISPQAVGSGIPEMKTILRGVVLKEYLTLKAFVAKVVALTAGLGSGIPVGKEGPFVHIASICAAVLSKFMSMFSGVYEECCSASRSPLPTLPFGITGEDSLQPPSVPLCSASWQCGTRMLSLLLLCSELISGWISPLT

[3] = biological target: T3, Peroxisome proliferator-activated receptor gamma (Homo sapiens, UniProt P37231)
T3 sequence (P37231 whole entry): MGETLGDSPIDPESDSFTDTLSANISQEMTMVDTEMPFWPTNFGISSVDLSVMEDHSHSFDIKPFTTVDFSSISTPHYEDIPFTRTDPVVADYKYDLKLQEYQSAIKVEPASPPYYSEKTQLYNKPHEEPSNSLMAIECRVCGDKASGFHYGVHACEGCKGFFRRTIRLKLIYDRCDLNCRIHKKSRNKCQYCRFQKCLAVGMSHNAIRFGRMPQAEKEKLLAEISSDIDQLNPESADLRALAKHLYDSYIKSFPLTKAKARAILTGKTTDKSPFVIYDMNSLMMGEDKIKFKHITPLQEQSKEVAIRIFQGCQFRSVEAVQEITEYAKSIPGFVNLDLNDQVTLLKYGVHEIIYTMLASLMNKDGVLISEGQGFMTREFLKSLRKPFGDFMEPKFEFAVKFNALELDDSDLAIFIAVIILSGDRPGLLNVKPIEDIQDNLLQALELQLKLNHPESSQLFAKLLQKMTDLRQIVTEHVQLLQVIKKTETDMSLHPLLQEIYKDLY

[4] = system: Extensor digitorum longus; assay: Inhibition of resting potassium conductance in Wistar rat extensor digitorum longus muscle by electrophysiology method; format: functional, tissue-based
[5] = biological target: T2, Chloride channel isoform 1 (Rattus norvegicus); assay: Inhibition of CIC1 in Wistar rat extensor digitorum longus muscle assessed as decrease in resting chloride channel conductance at 100 uM by electrophysiology method; format: tissue-based; design: scale not given: the % may be the effect or the level left
[6] = biological target: T4, Peroxisome proliferator-activated receptor alpha (Homo sapiens) (UniProt Q07869); assay: Agonist activity at GAL4-tagged human PPARalpha ligand binding domain expressed in human HepG2 cells assessed as receptor transactivation by luciferase reporter gene assay relative to Wy-14643; format: cell-based
T4 sequence (whole entry): T1 sequence (Q07869 whole entry)

[7] = biological target: T2, Chloride channel isoform 1 (Rattus norvegicus); assay: Inhibition of CIC1 in Wistar rat extensor digitorum longus muscle assessed as decrease in resting chloride channel conductance at 5 uM by electrophysiology method; format: tissue-based; design: scale not given: the % may be the effect or the level left
[8] = biological target: T3, Peroxisome proliferator-activated receptor gamma; settings: hepg2

EC50 ([1]; read-out: EC50) [nM]	EC50 [3] [nM]	Efficacy [6]	SMILES	also measured
11.5	572		O=C(O)[C@H](Cc1ccccc1)Oc1ccc(Cc2ccccc2)cc1	Activity [2]: 2%; Activity [4]: inactive; Activity [5]: 9%
	400		O=C(O)[C@H](Cc1ccccc1)Oc1ccc(CCc2ccccc2)cc1	Activity [4]: inactive; Activity [5]: 24%
	1600	inactive	O=C(O)[C@@H](Cc1ccccc1)Oc1ccc(CCc2ccccc2)cc1	EC50 ([1]; hepg2): Not Active
2400	5700	82%	O=C(O)[C@@H](Cc1ccccc1)Oc1ccc(Cc2ccccc2)cc1	
			CC(C)(Oc1ccc(C(=O)c2ccc(Cl)cc2)cc1)C(=O)O	Activity [5]: 11%
			CC(C)(Oc1ccc(Cl)cc1)C(=O)O	Activity [5]: 28%
		116%	O=C(O)[C@H](Cc1ccccc1)Oc1ccc(-c2ccccc2)cc1	Activity [7]: 2%; Activity [4]: inactive; Activity [5]: 12%
107	2400	112%	O=C(O)C(Cc1ccccc1)Oc1ccc(OCc2ccccc2)cc1 (racemic)	
600	3000	107%	O=C(O)C(Cc1ccccc1)Oc1ccc(COc2ccccc2)cc1 (racemic)	
15.9	580	115%	O=C(O)C(Cc1ccccc1)Oc1ccc(Cc2ccccc2)cc1 (racemic)	
488	1400	134%	O=C(O)C(Cc1ccccc1)Oc1ccc(SCc2ccccc2)cc1 (racemic)	
1800	9100	106%	O=C(Cc1ccccc1)c1ccc(OC(Cc2ccccc2)C(=O)O)cc1 (racemic)	
330	860	86%	O=C(O)C(Cc1ccccc1)Oc1ccc(CCc2ccccc2)cc1 (racemic)	
720		67%	O=C(O)C(Cc1ccccc1)Oc1ccc(CCCc2ccccc2)cc1 (racemic)	
1400	9400	120%	O=C(O)C(Cc1ccccc1)Oc1ccc(CNc2ccccc2)cc1 (racemic)	
60	1210	126%	O=C(O)C(Cc1ccccc1)Oc1ccc(Oc2ccccc2)cc1 (racemic)	
3600	13000	78%	O=C(O)C(Cc1ccccc1)Oc1ccc(NCc2ccccc2)cc1 (racemic)	
			Cc1cccc(Nc2cc(Cl)nc(SCC(=O)O)n2)c1C [PIRINIXIC ACID]	EC50 [8]: Not Active

SMILES	EC50 ([1]; read-out: EC50) [nM]	EC50 [3] [nM]	Efficacy [6]	also measured
O=C(O)C(Cc1ccccc1)Oc1ccc(CSc2ccccc2)cc1 (racemic)	310	400	92%	
O=C(O)C(Cc1ccccc1)Oc1ccc(C#Cc2ccccc2)cc1 (racemic)	1360	540	36%	
CN(CCOc1ccc(CC2SC(=O)NC2=O)cc1)c1ccccn1 (stereo not drawn) [ROSIGLITAZONE]			inactive	EC50 ([1]; hepg2): Not Active
